Measured values taken from patent US11903387B2 (priority 2016, dated 2024).
“And” between values parts separate entries of the source, which are not always exact repeats. Equal entries are not always repeated. Where two headings read alike, the source gives them in different places.

Legend:
Phytophthora infestans = assay: whole plant or invertebrate; assay type: in vivo; details: for Test 1 preventive value, Measured: applied alone
[1] = tested on: Pseudoperonospora cubensis; assay: Test 2: control effect against cucumber downy mildew; assay type: in vivo
[2] = Pseudoperonospora cubensis, applied alone, 2 ppm, read-out: Test 2 preventive value, Measured
[3] = Pseudoperonospora cubensis, applied alone, 10 ppm, read-out: Test 2 preventive value, Measured

## Cc1cc(C(F)(F)F)nn1CC(=O)N1CCC(c2nc(C3OCc4cccc(OS(C)(=O)=O)c4CO3)cs2)CC1 (centres unmarked) [Compound 1-6, 4-[4-(6-methylsulfonyloxy-1,5-dihydro-3H-2,4-benzodioxepin-3-yl)-2-thiazolyl]-1-[2-[5-methyl-3-(trifluoromethyl)-1H-pyrazol-1-yl]acetyl]piperidine]
Phytophthora infestans; Phytophthora infestans, in Solanum lycopersicum, read-out: Test 1 Measured preventive value, Compound 1-6 alone 0.06 ppm, average of three repeats
  pest or weed control at 0.06 ppm: 25%
Phytophthora infestans; Phytophthora infestans, in Solanum lycopersicum, read-out: Test 1 Measured preventive value, Compound 1-6 alone 0.3 ppm, average of three repeats
  pest or weed control at 0.3 ppm: 99.5%
Phytophthora infestans; Phytophthora infestans, in Solanum lycopersicum, read-out: Test 1 Measured preventive value, Compound alone, 0.3 ppm
  pest or weed control at 0.3 ppm: 98.3%
Phytophthora infestans; Phytophthora infestans, in Solanum lycopersicum, read-out: Test 1 Measured, Compound alone 0.3 ppm
  pest or weed control at 0.3 ppm: 98%
Phytophthora infestans; Phytophthora infestans, in Solanum lycopersicum, read-out: Test 1 preventive value, Measured, applied alone, 0.06 ppm
  pest or weed control at 0.06 ppm: 68.3%
Phytophthora infestans; Phytophthora infestans, in Solanum lycopersicum, read-out: Test 1 preventive value, Measured, applied alone, 0.3 ppm
  pest or weed control at 0.3 ppm: 97.7%
[1]; Compound 1-6 alone 0.06 ppm, average of three repeats
  Test 2 Measured preventive value: 5
[1]; Compound 1-6 alone 0.3 ppm, average of three repeats
  Test 2 Measured preventive value: 93.8
[1]; Compound alone, 0.3 ppm
  Test 2 Measured preventive value: 69.58 and 96.3
[1]; Pseudoperonospora cubensis, Compound alone 0.3 ppm, read-out: Test 2 Measured
  pest or weed control at 0.3 ppm: 98.5%
[1]; Pseudoperonospora cubensis, applied alone, 0.06 ppm, read-out: Test 2 preventive value, Measured
  pest or weed control at 0.06 ppm: 40%
[1]; Pseudoperonospora cubensis, applied alone, 0.3 ppm, read-out: Test 2 preventive value, Measured
  pest or weed control at 0.3 ppm: 98%

## N#Cc1c(Cl)c(Cl)c(Cl)c(C#N)c1Cl [Chlorothalonil]
Phytophthora infestans; Phytophthora infestans, in Solanum lycopersicum, read-out: Test 1 Measured preventive value, component (b) alone, 0.4 ppm
  pest or weed control at 0.4 ppm: 0%
Phytophthora infestans; Phytophthora infestans, in Solanum lycopersicum, read-out: Test 1 Measured preventive value, component (b) alone, 2 ppm
  pest or weed control at 2 ppm: 53.3%
Phytophthora infestans; Phytophthora infestans, in Solanum lycopersicum, read-out: Test 1 Measured preventive value, component (b) alone, 10 ppm
  pest or weed control at 10 ppm: 100%
Phytophthora infestans; Phytophthora infestans, in Solanum lycopersicum, read-out: Test 1 Measured, component (b) alone, 0.4 ppm
  pest or weed control at 0.4 ppm: 0%
Phytophthora infestans; Phytophthora infestans, in Solanum lycopersicum, read-out: Test 1 Measured, component (b) alone, 2 ppm
  pest or weed control at 2 ppm: 62.1%
Phytophthora infestans; Phytophthora infestans, in Solanum lycopersicum, read-out: Test 1 Measured, component (b) alone, 10 ppm
  pest or weed control at 10 ppm: 100%
[1]; Pseudoperonospora cubensis, applied alone, 0.4 ppm, read-out: Test 2 preventive value, Measured
  pest or weed control at 0.4 ppm: 41.8%
[1]; [2]
  pest or weed control at 2 ppm: 100%
[1]; [3]
  pest or weed control at 10 ppm: 100%
[1]; Pseudoperonospora cubensis, component (b) alone, 0.4 ppm, read-out: Test 2 Measured
  pest or weed control at 0.4 ppm: 0%
[1]; Pseudoperonospora cubensis, component (b) alone, 2 ppm, read-out: Test 2 Measured
  pest or weed control at 2 ppm: 80.5%
[1]; Pseudoperonospora cubensis, component (b) alone, 10 ppm, read-out: Test 2 Measured
  pest or weed control at 10 ppm: 100%

## CCNc1nc(CC)c(C(=O)NC(C#N)c2cccs2)s1 (centres unmarked) [Ethaboxam]
Phytophthora infestans; component (b) alone, 2 ppm
  Test 1 Measured preventive value: 95
Phytophthora infestans; component (b) alone, 10 ppm
  Test 1 Measured preventive value: 98.3
Phytophthora infestans; component (b) alone, 50 ppm
  Test 1 Measured preventive value: 97.8
[1]; component (b) alone, 2 ppm
  Test 2 Measured preventive value: 88.3
[1]; component (b) alone, 10 ppm
  Test 2 Measured preventive value: 99.5
[1]; component (b) alone, 50 ppm
  Test 2 Measured preventive value: 100

## N#Cc1c[nH]cc1-c1cccc2c1OC(F)(F)O2 [Fludioxonil]
Phytophthora infestans; Phytophthora infestans, in Solanum lycopersicum, read-out: Test 1 Measured, component (b) alone 20 ppm
  pest or weed control at 20 ppm: 0%
Phytophthora infestans; Phytophthora infestans, in Solanum lycopersicum, read-out: Test 1 Measured, component (b) alone 100 ppm
  pest or weed control at 100 ppm: 6.7%
Phytophthora infestans; Phytophthora infestans, in Solanum lycopersicum, read-out: Test 1 Measured, component (b) alone 500 ppm
  pest or weed control at 500 ppm: 18.3%
[1]; Pseudoperonospora cubensis, component (b) alone 20 ppm, read-out: Test 2 Measured
  pest or weed control at 20 ppm: 87.5%
[1]; Pseudoperonospora cubensis, component (b) alone 100 ppm, read-out: Test 2 Measured
  pest or weed control at 100 ppm: 97%
[1]; Pseudoperonospora cubensis, component (b) alone 500 ppm, read-out: Test 2 Measured
  pest or weed control at 500 ppm: 98.3%

## N=C(N)NCCCCCCCCNCCCCCCCCNC(=N)N [Iminoctadine]
Phytophthora infestans; component (b) alone, 20 ppm
  Test 1 Measured: 5
Phytophthora infestans; component (b) alone, 100 ppm
  Test 1 Measured: 92.5
Phytophthora infestans; component (b) alone, 500 ppm
  Test 1 Measured: 96.5
[1]; component (b) alone, 20 ppm
  Test 2 Measured: 79.5
[1]; component (b) alone, 100 ppm
  Test 2 Measured: 97
[1]; component (b) alone, 500 ppm
  Test 2 Measured: 99

## CO/C=C(/C(=O)OC)c1ccccc1Oc1cc(Oc2ccccc2C#N)ncn1 [Azoxystrobin]
Phytophthora infestans; 0.4 ppm
  Test 1 preventive value, Measured: 5.0
Phytophthora infestans; 2 ppm
  Test 1 preventive value, Measured: 66.7
Phytophthora infestans; 10 ppm
  Test 1 preventive value, Measured: 96.2
[1]; applied alone, 0.4 ppm
  Test 2 preventive value, Measured: 0
[1]; applied alone, 2 ppm
  Test 2 preventive value, Measured: 0
[1]; applied alone, 10 ppm
  Test 2 preventive value, Measured: 0

## CO/N=C(/C(=O)OC)c1ccccc1COc1ccccc1C [Kresoxim-methyl]
Phytophthora infestans; Phytophthora infestans, in Solanum lycopersicum, read-out: Test 1 preventive value, Measured, applied alone, 2 ppm
  pest or weed control at 2 ppm: 50%
Phytophthora infestans; Phytophthora infestans, in Solanum lycopersicum, read-out: Test 1 preventive value, Measured, applied alone, 10 ppm
  pest or weed control at 10 ppm: 90.7%
Phytophthora infestans; Phytophthora infestans, in Solanum lycopersicum, read-out: Test 1 preventive value, Measured, applied alone, 50 ppm
  pest or weed control at 50 ppm: 99.8%
[1]; [2]
  pest or weed control at 2 ppm: 0%
[1]; [3]
  pest or weed control at 10 ppm: 7.5%
[1]; Pseudoperonospora cubensis, applied alone, 50 ppm, read-out: Test 2 preventive value, Measured
  pest or weed control at 50 ppm: 2.5%

## CCO[PH](=O)O [Fosetyl-aluminum]
Phytophthora infestans; component (b) alone 80 ppm
  Test 1 Measured: 31.7
Phytophthora infestans; component (b) alone 400 ppm
  Test 1 Measured: 85.7
[1]; component (b) alone 80 ppm
  Test 2 Measured: 0
[1]; component (b) alone 400 ppm
  Test 2 Measured: 22.5
[1]; component (b) alone 2000 ppm
  Test 2 Measured: 49
